Test results: PMC6333442, “Conserved allosteric pathways for activation of TRPV3 revealed through engineering vanilloid-sensitivity” (eLife, 2019)

How the values were obtained:
rat TRPV2-4M = biological target: T1, rat TRPV2-4M (Rattus norvegicus, UniProt Q9WUD2, F472S/L507M/L510T/Q530E); design: method as in Zhang et al., 2016; settings: ref Zhang et al., 2016; cited from earlier work
T1 construct: expressed in transfected cells; host or cells: Xenopus laevis oocytes
T1 sequence (Q9WUD2 1-761 F472S/L507M/L510T/Q530E): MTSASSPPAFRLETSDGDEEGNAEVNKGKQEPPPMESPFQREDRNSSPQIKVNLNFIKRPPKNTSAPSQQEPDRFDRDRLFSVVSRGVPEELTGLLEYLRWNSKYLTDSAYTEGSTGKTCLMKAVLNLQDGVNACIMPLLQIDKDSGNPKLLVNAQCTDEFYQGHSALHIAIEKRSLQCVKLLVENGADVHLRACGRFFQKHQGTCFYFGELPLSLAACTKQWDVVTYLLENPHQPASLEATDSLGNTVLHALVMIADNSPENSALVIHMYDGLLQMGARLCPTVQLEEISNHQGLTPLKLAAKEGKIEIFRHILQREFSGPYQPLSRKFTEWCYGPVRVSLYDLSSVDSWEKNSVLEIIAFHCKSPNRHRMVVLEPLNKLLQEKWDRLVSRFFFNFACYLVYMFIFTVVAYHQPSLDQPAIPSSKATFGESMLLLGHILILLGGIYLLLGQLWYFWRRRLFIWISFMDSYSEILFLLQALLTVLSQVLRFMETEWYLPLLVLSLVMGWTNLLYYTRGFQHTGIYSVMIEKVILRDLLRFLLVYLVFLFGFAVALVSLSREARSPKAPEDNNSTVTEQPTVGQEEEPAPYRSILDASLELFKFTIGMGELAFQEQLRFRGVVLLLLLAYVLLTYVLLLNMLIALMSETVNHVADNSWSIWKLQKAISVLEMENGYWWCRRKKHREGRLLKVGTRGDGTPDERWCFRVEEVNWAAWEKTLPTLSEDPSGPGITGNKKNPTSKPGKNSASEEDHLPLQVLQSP

[1] = system: TRPV3-6M + V587L, A606V, F625L, F656I or F666Y; experiment: Two-electrode voltage clamp, TRPV3-6M with individual pore mutations (strong RTx responders); assay type: cell-based, mouse; settings: RTx 100 nM, room temperature; magnitude very similar to 2-APB 3 mM
Method: All channel constructs were expressed in Xenopus laevis oocytes and studied using the two-electrode voltage clamp technique (TEVC) following 1–4 days of incubation after cRNA injection. The animal care and experimental procedures were performed in accordance with the Guide for the Care and Use of Laboratory Animals and were approved by the Animal Care and Use Committee of the National Institute of Neurological Disorders and Stroke (Animal protocol number 1253–17). Oocytes were removed surgically and incubated with agitation for 1 hr in a solution containing (in mM) 82.5 NaCl, 2.5 KCl, 1 MgCl2, 5 HEPES, pH 7.6 (with NaOH), and collagenase (2 mg/ml; Worthington Biochemical, Lakewood, NJ). Defolliculated oocytes were injected with cRNA for each of the constructs and incubated at 17°C in a solution containing (in mM) 96 NaCl, 2 KCl, 1 MgCl2, 1.8 CaCl2, 5 HEPES, pH 7.6 (with NaOH), and gentamicin (50 μg/ml, GIBCO-BRL, Gaithersburg, MD). Oocyte membrane voltage was controlled using an OC-725C oocyte clamp (Warner Instruments, Hamden, CT). Data were filtered at 1–3 kHz and digitized at 20 kHz using pClamp software (Molecular Devices, Sunnyvale, CA) and a Digidata 1440A digitizer (Axon Instruments). Microelectrode resistances were 0.1–1 MΩ when filled with 3 M KCl. For recording TRP channel currents, the external recording solution contained (in mM) 100 KCl, 10 HEPES, pH 7.6 (with KOH). […]

TRPV3-6M + 5PM = biological target: T2, TRPV3-6M + 5PM (Mus musculus, UniProt Q8K424, A560T/A606V/F522S/F625L/F656I/F666Y/H523E/L557M/Q580E/V587L/W521Y); experiment: Two-electrode voltage clamp, TRPV3-6M + 5PM in oocytes; assay type: cell-based
T2 construct: expressed in transfected cells; host or cells: Xenopus laevis oocytes
T2 sequence (Q8K424 1-791 W521Y/F522S/H523E/L557M/A560T/Q580E/V587L/A606V/F625L/F656I/F666Y): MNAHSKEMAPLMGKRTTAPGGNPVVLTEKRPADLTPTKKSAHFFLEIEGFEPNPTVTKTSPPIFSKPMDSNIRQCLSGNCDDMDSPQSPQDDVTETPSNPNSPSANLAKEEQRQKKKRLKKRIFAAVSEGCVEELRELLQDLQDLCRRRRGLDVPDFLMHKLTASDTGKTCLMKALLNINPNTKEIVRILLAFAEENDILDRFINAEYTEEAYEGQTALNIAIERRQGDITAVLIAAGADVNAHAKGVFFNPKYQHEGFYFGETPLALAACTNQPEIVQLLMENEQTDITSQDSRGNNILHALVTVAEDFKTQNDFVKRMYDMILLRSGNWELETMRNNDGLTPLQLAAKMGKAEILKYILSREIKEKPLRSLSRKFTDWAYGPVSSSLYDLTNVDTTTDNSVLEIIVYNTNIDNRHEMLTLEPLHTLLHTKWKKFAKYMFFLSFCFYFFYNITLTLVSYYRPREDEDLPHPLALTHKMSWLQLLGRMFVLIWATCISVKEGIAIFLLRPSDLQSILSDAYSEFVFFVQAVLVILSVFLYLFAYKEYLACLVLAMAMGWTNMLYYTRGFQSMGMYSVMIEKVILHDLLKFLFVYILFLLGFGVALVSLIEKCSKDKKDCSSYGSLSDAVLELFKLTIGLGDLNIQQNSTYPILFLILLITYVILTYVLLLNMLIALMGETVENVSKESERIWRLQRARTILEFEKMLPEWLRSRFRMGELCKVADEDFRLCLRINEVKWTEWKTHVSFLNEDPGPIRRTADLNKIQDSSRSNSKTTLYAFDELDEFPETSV
Method: All channel constructs were expressed in Xenopus laevis oocytes and studied using the two-electrode voltage clamp technique (TEVC) following 1–4 days of incubation after cRNA injection. The animal care and experimental procedures were performed in accordance with the Guide for the Care and Use of Laboratory Animals and were approved by the Animal Care and Use Committee of the National Institute of Neurological Disorders and Stroke (Animal protocol number 1253–17). Oocytes were removed surgically and incubated with agitation for 1 hr in a solution containing (in mM) 82.5 NaCl, 2.5 KCl, 1 MgCl2, 5 HEPES, pH 7.6 (with NaOH), and collagenase (2 mg/ml; Worthington Biochemical, Lakewood, NJ). Defolliculated oocytes were injected with cRNA for each of the constructs and incubated at 17°C in a solution containing (in mM) 96 NaCl, 2 KCl, 1 MgCl2, 1.8 CaCl2, 5 HEPES, pH 7.6 (with NaOH), and gentamicin (50 μg/ml, GIBCO-BRL, Gaithersburg, MD). Oocyte membrane voltage was controlled using an OC-725C oocyte clamp (Warner Instruments, Hamden, CT). Data were filtered at 1–3 kHz and digitized at 20 kHz using pClamp software (Molecular Devices, Sunnyvale, CA) and a Digidata 1440A digitizer (Axon Instruments). Microelectrode resistances were 0.1–1 MΩ when filled with 3 M KCl. For recording TRP channel currents, the external recording solution contained (in mM) 100 KCl, 10 HEPES, pH 7.6 (with KOH). Experiments were performed at room temperature (~22°C), except as indicated otherwise. […] Current time courses were obtained by stepping membrane voltage every 2 s from a holding potential of 0 mV to either −60 or +60 mV for 100 ms, and plotting the mean steady-state current at the end of each voltage step as a function of total recording time. I-V relations were obtained similarly, but voltage was stepped every 2 s to a different value, in 10 mV increments and starting at −60 mV.

In the case of `C=C(C)[C@]12C[C@@H](C)[C@@]34O[C@](Cc5ccccc5)(O[C@@H]1[C@@H]3C=C(COC(=O)Cc1ccc(O)c(OC)c1)C[C@]1(O)C(=O)C(C)=C[C@@H]41)O2` [RTx, resiniferatoxin], the “saturating concentration of RTx” value (rat TRPV2-4M) is listed as 100 nM, the “channel activation (current response)” value [1] is listed as “robust RTx-activated currents” and the “dissociation of RTx” value (TRPV3-6M + 5PM) is listed as “exceedingly slow”. The “response to RTx compared with maximal response to 2-APB” value (TRPV3-6M + 5PM; RTx 100 nM, 2-APB 3 mM, +60 mV) was “similar”.
